The record followed here is ChEMBL document CHEMBL5465560, “Selectivity Literature for EUbOPEN Chemogenomic Library” (2024).

Assay [1] deals with Serine/threonine-protein kinase tousled-like 2 (Homo sapiens) (UniProt Q86UE8). The assay can be described thus: Selectivity interaction (KinomeScan (DiscoverX)) EUB0001619a TLK2. The conditions noted are these: at 1 µM.
Assay [2] concerns the target Serine/threonine-protein kinase SMG1 (Homo sapiens) (UniProt Q96Q15). The assay can be described thus: Selectivity interaction (ActivX KiNativ screen (kinase selectivity in THP-1 cell lysates)) EUB0000639a SMG1. In kind it is subcellular. The following applies: lysate, at 5 µM.
Assay [3] concerns the target G protein-coupled receptor kinase 5 (Homo sapiens, UniProt P34947). The assay can be described thus: Selectivity interaction (Kinase panel (DSF assay)) EUB0001559a GRK5.
Assay [4] has as its target T1, Tyrosine-protein kinase Mer (Homo sapiens) (UniProt Q12866).
T1 sequence (whole entry): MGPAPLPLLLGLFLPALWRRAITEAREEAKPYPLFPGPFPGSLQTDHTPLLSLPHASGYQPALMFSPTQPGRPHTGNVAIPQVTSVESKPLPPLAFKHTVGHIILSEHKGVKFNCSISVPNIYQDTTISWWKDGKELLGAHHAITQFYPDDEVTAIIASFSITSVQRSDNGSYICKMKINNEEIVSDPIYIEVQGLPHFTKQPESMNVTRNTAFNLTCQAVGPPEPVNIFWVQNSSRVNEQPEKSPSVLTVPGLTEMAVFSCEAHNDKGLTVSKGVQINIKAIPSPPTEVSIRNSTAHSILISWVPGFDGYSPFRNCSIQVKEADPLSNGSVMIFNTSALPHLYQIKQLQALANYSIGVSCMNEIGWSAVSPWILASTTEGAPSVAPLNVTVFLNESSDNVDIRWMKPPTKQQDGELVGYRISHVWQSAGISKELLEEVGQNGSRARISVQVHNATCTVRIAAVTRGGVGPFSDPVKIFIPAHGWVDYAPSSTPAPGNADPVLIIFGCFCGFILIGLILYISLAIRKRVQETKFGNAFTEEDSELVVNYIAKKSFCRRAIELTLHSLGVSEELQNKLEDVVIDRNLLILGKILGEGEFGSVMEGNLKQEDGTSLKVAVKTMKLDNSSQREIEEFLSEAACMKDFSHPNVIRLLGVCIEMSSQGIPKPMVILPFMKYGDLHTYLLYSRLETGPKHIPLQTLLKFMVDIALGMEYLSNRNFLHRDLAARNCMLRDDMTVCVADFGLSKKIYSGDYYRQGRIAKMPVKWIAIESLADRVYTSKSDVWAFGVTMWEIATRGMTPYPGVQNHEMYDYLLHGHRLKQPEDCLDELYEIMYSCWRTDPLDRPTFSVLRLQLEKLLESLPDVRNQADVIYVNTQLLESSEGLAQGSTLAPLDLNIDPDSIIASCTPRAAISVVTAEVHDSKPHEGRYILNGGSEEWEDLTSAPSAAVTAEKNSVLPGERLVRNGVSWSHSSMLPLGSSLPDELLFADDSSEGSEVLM
The assay can be described thus: Selectivity interaction (Kinase panel (DSF assay)) EUB0001559a MERTK. Background: DSF heats the sample and reads unfolding from a dye or from intrinsic fluorescence.

Assay [5] has as its target T2, Serine/threonine-protein kinase 3 (Homo sapiens) (UniProt Q13188).
T2 sequence (whole entry): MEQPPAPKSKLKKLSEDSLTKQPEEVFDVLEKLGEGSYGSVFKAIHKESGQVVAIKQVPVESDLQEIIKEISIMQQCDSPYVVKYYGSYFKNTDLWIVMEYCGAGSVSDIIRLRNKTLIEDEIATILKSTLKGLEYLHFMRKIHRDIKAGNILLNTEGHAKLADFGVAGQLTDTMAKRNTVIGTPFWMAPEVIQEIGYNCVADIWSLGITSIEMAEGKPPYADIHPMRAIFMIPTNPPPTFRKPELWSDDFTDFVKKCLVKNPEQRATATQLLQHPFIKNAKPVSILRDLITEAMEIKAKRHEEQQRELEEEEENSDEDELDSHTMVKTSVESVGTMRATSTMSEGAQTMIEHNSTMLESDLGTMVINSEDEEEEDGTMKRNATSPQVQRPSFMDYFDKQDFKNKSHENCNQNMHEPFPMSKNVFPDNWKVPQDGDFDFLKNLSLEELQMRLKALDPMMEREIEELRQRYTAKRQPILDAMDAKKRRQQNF
The assay can be described thus: Selectivity interaction (KinomeScan (DiscoverX)) EUB0000045b STK3.

Assay [6] addresses Activin receptor type-2B (Homo sapiens) (UniProt Q13705). The assay can be described thus: Selectivity interaction (KinomeScan (DiscoverX)) EUB0001049a ACVR2B. The conditions noted are these: at 1 µM.

Serine/threonine-protein kinase SMG1 (Homo sapiens), sequence (Q96Q15 whole entry): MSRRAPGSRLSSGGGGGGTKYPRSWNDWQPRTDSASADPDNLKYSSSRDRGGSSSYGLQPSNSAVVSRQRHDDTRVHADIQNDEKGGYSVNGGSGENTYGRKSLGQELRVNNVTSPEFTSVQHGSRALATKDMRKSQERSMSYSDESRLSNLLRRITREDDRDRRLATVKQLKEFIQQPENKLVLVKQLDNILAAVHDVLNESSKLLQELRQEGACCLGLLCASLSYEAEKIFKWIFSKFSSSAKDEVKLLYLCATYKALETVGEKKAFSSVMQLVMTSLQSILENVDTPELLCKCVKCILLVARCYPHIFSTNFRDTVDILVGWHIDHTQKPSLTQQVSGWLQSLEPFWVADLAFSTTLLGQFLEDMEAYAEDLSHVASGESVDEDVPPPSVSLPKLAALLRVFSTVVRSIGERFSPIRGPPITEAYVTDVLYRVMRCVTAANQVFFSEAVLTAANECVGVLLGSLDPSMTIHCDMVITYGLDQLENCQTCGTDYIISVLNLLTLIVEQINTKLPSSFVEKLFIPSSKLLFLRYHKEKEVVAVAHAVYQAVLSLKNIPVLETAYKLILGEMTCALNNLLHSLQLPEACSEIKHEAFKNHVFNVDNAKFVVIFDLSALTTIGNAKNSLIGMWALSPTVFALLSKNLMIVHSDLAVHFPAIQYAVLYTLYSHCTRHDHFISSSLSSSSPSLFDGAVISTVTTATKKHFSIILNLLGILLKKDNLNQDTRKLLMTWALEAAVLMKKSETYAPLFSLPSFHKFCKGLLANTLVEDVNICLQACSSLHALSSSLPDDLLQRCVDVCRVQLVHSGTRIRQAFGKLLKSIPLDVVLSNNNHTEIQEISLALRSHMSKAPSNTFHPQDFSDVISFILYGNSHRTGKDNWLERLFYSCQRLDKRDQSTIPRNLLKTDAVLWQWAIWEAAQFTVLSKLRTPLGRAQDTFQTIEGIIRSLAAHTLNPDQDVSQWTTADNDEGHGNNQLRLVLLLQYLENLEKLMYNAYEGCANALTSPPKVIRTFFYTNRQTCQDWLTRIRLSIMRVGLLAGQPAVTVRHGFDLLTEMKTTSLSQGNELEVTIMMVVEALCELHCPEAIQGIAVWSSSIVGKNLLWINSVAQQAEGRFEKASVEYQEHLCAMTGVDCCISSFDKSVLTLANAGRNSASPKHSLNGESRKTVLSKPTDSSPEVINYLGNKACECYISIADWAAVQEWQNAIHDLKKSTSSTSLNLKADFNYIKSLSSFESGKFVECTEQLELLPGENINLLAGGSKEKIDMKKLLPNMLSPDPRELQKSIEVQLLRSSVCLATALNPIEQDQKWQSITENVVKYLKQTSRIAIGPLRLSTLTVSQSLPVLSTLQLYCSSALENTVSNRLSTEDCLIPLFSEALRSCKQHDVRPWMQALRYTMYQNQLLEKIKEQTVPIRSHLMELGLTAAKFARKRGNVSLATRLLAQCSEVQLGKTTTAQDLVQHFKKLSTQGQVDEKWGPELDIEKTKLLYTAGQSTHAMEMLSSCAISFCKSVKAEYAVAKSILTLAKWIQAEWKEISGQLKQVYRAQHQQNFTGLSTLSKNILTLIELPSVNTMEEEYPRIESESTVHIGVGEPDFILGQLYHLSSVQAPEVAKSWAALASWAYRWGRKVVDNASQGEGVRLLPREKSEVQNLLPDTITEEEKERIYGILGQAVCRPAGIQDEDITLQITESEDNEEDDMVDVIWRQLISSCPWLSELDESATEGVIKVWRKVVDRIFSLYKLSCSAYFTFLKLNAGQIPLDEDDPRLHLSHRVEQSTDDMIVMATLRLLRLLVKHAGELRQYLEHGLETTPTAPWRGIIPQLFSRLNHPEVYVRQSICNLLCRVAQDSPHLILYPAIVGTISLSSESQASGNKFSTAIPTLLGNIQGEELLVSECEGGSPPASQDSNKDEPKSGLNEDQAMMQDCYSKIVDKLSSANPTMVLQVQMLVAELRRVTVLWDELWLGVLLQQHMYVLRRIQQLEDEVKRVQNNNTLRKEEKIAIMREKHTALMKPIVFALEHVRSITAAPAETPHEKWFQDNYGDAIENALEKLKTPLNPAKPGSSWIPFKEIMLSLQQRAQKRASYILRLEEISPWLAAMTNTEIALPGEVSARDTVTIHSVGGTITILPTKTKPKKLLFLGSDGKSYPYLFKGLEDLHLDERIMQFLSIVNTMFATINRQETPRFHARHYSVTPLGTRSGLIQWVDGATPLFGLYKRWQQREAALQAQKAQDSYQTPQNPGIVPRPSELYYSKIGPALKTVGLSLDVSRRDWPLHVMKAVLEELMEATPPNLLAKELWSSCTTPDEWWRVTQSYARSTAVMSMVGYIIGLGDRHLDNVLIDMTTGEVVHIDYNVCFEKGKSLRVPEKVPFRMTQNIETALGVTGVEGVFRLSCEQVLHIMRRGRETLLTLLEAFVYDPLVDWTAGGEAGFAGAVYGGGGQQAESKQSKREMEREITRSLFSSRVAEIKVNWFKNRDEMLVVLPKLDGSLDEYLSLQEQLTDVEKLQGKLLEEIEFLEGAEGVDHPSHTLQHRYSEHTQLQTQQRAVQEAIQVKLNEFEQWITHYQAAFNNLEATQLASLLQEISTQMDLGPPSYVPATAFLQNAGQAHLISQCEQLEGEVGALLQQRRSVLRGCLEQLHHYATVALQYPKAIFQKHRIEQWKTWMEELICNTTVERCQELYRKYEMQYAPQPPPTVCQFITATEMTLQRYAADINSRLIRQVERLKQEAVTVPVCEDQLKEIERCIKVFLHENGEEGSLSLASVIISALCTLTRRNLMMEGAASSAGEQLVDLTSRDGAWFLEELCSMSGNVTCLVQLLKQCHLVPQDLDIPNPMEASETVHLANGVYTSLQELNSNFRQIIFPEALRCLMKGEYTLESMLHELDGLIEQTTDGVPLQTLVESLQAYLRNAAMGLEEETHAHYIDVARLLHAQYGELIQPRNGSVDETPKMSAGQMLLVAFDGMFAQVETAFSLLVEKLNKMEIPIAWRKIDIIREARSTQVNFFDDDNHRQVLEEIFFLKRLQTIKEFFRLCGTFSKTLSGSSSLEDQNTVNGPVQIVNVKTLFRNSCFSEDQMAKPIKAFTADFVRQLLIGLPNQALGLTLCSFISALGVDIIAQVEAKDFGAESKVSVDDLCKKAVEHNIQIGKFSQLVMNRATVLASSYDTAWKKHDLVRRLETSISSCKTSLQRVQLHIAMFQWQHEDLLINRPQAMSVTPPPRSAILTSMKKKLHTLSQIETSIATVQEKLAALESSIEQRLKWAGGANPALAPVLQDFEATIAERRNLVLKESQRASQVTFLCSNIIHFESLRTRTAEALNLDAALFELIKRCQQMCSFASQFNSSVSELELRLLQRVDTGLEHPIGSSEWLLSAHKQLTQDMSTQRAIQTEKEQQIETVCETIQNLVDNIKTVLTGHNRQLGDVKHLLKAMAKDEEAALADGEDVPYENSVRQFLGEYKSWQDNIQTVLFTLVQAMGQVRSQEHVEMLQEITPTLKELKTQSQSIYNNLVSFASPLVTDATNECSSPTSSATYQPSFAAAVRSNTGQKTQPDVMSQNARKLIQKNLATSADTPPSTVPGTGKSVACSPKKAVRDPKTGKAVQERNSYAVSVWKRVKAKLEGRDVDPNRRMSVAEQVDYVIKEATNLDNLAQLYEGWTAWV
Serine/threonine-protein kinase tousled-like 2 (Homo sapiens), sequence (Q86UE8 whole entry, looked up): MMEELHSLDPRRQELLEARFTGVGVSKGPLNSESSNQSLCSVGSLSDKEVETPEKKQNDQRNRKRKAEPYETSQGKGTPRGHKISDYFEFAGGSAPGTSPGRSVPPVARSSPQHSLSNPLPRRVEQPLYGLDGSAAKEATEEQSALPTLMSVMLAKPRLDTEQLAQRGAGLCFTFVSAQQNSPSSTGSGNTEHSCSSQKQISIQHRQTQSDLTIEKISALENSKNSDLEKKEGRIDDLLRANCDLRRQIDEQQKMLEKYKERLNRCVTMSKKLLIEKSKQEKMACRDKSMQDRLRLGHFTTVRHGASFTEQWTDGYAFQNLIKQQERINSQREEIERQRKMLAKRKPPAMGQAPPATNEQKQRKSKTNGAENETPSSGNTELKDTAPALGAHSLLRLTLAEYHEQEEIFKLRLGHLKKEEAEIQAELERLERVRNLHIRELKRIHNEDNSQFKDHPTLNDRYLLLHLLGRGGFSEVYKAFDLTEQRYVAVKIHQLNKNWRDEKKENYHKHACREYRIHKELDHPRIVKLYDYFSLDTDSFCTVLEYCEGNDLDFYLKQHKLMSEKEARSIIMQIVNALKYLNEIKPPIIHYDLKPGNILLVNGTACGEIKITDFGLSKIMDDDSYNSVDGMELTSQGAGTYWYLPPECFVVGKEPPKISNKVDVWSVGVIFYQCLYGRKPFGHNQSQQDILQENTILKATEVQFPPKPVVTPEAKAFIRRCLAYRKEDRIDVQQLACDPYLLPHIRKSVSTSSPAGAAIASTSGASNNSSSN
Activin receptor type-2B (Homo sapiens), sequence (Q13705 whole entry): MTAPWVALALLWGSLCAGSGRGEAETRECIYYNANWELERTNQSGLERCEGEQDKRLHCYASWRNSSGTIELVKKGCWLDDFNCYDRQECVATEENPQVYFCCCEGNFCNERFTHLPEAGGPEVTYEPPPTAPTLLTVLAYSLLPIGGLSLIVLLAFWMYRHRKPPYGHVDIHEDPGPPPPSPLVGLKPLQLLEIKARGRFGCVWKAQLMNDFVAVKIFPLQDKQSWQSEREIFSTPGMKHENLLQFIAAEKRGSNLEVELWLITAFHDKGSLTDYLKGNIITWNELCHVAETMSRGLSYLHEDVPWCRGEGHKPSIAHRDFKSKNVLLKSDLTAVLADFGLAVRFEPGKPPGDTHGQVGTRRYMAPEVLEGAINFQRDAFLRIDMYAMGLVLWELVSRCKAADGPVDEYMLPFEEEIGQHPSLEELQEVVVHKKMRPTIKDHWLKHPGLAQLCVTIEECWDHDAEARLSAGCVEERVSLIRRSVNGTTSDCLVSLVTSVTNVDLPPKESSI

On to `N#Cc1cccc(-c2c[nH]c3ncnc(N4CCOCC4)c23)c1`, for which, in assay [1], the % of control was determined as 93%.

With `CC[C@@H]1[C@H](F)C(=O)N[C@@H]1COc1nccc2cc(C(N)=O)c(OC)cc12` [ZIMLOVISERTIB], the % of inhibition in assay [2] is -11.2%. `CN(C(=O)c1cnn2cccnc12)c1cc2c(cc1N1CCOCC1)C(=O)N(C[C@@H](F)C(C)(C)O)C2`: the dTM was 0 K in assay [3] and 0.3 K in assay [4]. As to `C=CC(=O)Nc1cc(-n2c(=O)ccc3cnc4ccc(-c5ccc(NS(C)(=O)=O)cc5)cc4c32)ccc1C`, the % of control in assay [5] (at 1 µM) amounted to 62%; in assay [5] (at 10 µM), 95%. On to `COc1cc(Nc2nc(C)cc(-c3cnn4nc(OC)ccc34)n2)cc(C(F)(F)F)c1`, for which the % of control in assay [6] worked out at 92%.
